In article PMC3439991 (Thrombosis, 2012):
Where two headings read alike, the source gives them in different places.

Columns and labels:
[1] = pig, in vivo, sc
Excerpt: Furthermore, systemic effects as bleeding were investigated by examination of all major tissues and organs.

[2] = Cumulative urine excretion of argatroban, by ecarin clotting time (ECT); format: in vivo; conditions: pigs, s.c., similar for both formulations
Protocol: The blood samples were drawn into plastic tubes containing 3.13% sodium citrate before dosing and at definite time intervals thereafter. Then, blood samples were centrifuged (1000 g for 10 min) to obtain citrated plasma. Urine samples were also collected using a bladder catheter and frozen at −20°C until further analysis.
Furthermore, antithrombin activity in plasma samples was also determined by ecarin chromogenic assay (ECA).

[3] = cited from earlier work
[4] = cited from earlier work; remark: listed apart in the source
[5] = after subcutaneous administration

Molecule: CC1CNc2c(cccc2S(=O)(=O)N[C@@H](CCCNC(=N)N)C(=O)N2CC[C@@H](C)C[C@@H]2C(=O)O)C1 (stereo partly drawn) [Argatroban]
- Local bleeding, toxic reactions, and other side effects [1]: not observed
- administered antithrombotic active amount recovered in urine (cumulative) [2]: 15–20%
- solubility in water [3]: about 1 mg·mL^−1

Molecule: hirudin
- half-life ([4]; administered intravenously): about 60 min
- half-life [4, 5]: 2 h
- period of stable plasma concentrations and antithrombotic activity [4, 5]: approximately 12 hours
